Measured values: PubChem BioAssay AID328 (DTP/NCI, 2004)
Where “and” joins values, the source holds several entries; their conditions need not be identical. Identical values can stand only once. Toxic doses and inconclusive results are not listed. The calls were made as follows: active = survival T/C of 150% or more; inactive = T/C below 125% in these data.

System: BDF1 mice, P388 leukemia ip, median survival T/C
Assay: NCI In Vivo Anticancer Drug Screen. Data for tumor model P388 Leukemia (intraperitoneal) in B6D2F1 (BDF1) mice
Conditions: endpoint: median survival time, higher = longer survival
How it was run: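 Mice carrying the transplantable tumour receive compound or vehicle. Survival is followed in each arm, and the treated measure is divided by the vehicle measure.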

[1] = dose: 6.25 mg/kg/injection, schedule: Q01DX009 (ip), vehicle: saline
[2] = dose: 12.5 mg/kg/injection, schedule: Q01DX009 (ip), vehicle: saline
[3] = dose: 25.0 mg/kg/injection, schedule: Q04DX003 (ip), vehicle: saline
[4] = dose: 50.0 mg/kg/injection, schedule: Q04DX003 (ip), vehicle: saline
[5] = dose: 100.0 mg/kg/injection, schedule: Q04DX003 (ip), vehicle: saline
[6] = dose: 25.0 mg/kg/injection, schedule: Q01DX009 (ip), vehicle: saline with Tween-80
[7] = dose: 50.0 mg/kg/injection, schedule: Q01DX009 (ip), vehicle: saline with Tween-80
[8] = dose: 100.0 mg/kg/injection, schedule: Q01DX009 (ip), vehicle: saline with Tween-80
[9] = dose: 200.0 mg/kg/injection, schedule: Q01DX009 (ip), vehicle: saline with Tween-80
[10] = dose: 100.0 mg/kg/injection, schedule: Q01DX009 (ip), vehicle: Klucel (hydroxypropylcellulose) (HPC)
[11] = dose: 200.0 mg/kg/injection, schedule: Q01DX009 (ip), vehicle: Klucel (hydroxypropylcellulose) (HPC)
[12] = dose: 400.0 mg/kg/injection, schedule: Q01DX009 (ip), vehicle: Klucel (hydroxypropylcellulose) (HPC)
[13] = dose: 400.0 mg/kg/injection, schedule: Q01DX009 (ip), vehicle: saline with Tween-80
[14] = dose: 100.0 mg/kg/injection, schedule: Q04DX003 (ip), vehicle: saline with Tween-80
[15] = dose: 200.0 mg/kg/injection, schedule: Q04DX003 (ip), vehicle: saline with Tween-80
[16] = dose: 400.0 mg/kg/injection, schedule: Q04DX003 (ip), vehicle: saline with Tween-80

Measured: T/C

COc1ccc(NC(=O)CC(C)=O)cc1
inactive: [1] 98 % of control | [2] 91 % of control | [3] 111 % of control | dose: 50.0 mg/kg/injection, schedule: Q01DX009 (ip), vehicle: saline 108 % of control | [4] 102 % of control | dose: 100.0 mg/kg/injection, schedule: Q01DX009 (ip), vehicle: saline 110 % of control | [5] 98 % of control | dose: 200.0 mg/kg/injection, schedule: Q01DX009 (ip), vehicle: saline 106 % of control | dose: 200.0 mg/kg/injection, schedule: Q04DX003 (ip), vehicle: saline 116 % of control | dose: 400.0 mg/kg/injection, schedule: Q01DX009 (ip), vehicle: saline 98 % of control | dose: 400.0 mg/kg/injection, schedule: Q04DX003 (ip), vehicle: saline 93 % of control

COc1nc(Cl)nc(OC)n1
inactive: [6] 96 % of control | [7] 97 % of control | [8] 99 % of control | [9] 99 % of control

Cc1cc(C)c(S(=O)(=O)ON=C2c3ccccc3-c3ccccc32)c(C)c1
inactive: dose: 25.0 mg/kg/injection, schedule: Q01DX001 (ip), vehicle: Klucel (hydroxypropylcellulose) (HPC) 100 % of control | dose: 50.0 mg/kg/injection, schedule: Q01DX001 (ip), vehicle: Klucel (hydroxypropylcellulose) (HPC) 109 % of control | dose: 100.0 mg/kg/injection, schedule: Q01DX001 (ip), vehicle: Klucel (hydroxypropylcellulose) (HPC) 113 % of control | [10] 105 % of control | dose: 200.0 mg/kg/injection, schedule: Q01DX001 (ip), vehicle: Klucel (hydroxypropylcellulose) (HPC) 95 % of control | [11] 95 % of control | dose: 400.0 mg/kg/injection, schedule: Q01DX001 (ip), vehicle: Klucel (hydroxypropylcellulose) (HPC) 109 % of control | [12] 110 % of control

CC[N+](CC)(CC)CCCCCCCCCC[N+](CC)(CC)CC
inactive: dose: 0.25 mg/kg/injection, schedule: Q01DX009 (ip), vehicle: water 91 % of control | dose: 0.39 mg/kg/injection, schedule: Q04DX003 (ip), vehicle: water 102 % of control and 107 % of control | dose: 0.5 mg/kg/injection, schedule: Q01DX009 (ip), vehicle: water 112 % of control | dose: 0.5 mg/kg/injection, schedule: Q04DX003 (ip), vehicle: saline with Tween-80 92 % of control | dose: 0.78 mg/kg/injection, schedule: Q04DX003 (ip), vehicle: saline with Tween-80 100 % of control | dose: 0.78 mg/kg/injection, schedule: Q04DX003 (ip), vehicle: water 98 % of control and 120 % of control | dose: 1.0 mg/kg/injection, schedule: Q01DX009 (ip), vehicle: water 91 % of control and 105 % of control | dose: 1.0 mg/kg/injection, schedule: Q04DX003 (ip), vehicle: saline with Tween-80 92 % of control | dose: 1.56 mg/kg/injection, schedule: Q04DX003 (ip), vehicle: water 95 % of control and 104 % of control

Clc1cc(CBr)c(Cl)c(Cl)c1CBr
inactive: dose: 6.25 mg/kg/injection, schedule: Q01DX009 (ip), vehicle: Klucel (hydroxypropylcellulose) (HPC) 109 % of control | [1] 100 % of control | dose: 6.25 mg/kg/injection, schedule: Q04DX003 (ip), vehicle: saline sonified 95 % of control | dose: 12.5 mg/kg/injection, schedule: Q01DX009 (ip), vehicle: Klucel (hydroxypropylcellulose) (HPC) 109 % of control | [2] 103 % of control | dose: 12.5 mg/kg/injection, schedule: Q04DX003 (ip), vehicle: saline sonified 100 % of control | dose: 25.0 mg/kg/injection, schedule: Q01DX009 (ip), vehicle: saline 110 % of control | dose: 25.0 mg/kg/injection, schedule: Q04DX003 (ip), vehicle: saline sonified 100 % of control

COc1cccc(NC(=O)CCC(=O)O)c1
inactive: [8] 104 % of control | [9] 100 % of control | [13] 100 % of control

O=C(O)COc1ccc(-c2ccc(Br)cc2)cc1
inactive: [7] 90 % of control | [9] 100 % of control | [13] 101 % of control

COC1OC2COC(c3ccccc3)OC2C2OC12 (stereo not given)
inactive: dose: 6.25 mg/kg/injection, schedule: Q01DX009 (ip), vehicle: saline with Tween-80 109 % of control | dose: 12.5 mg/kg/injection, schedule: Q01DX009 (ip), vehicle: saline with Tween-80 99 % of control | [6] 96 % of control | [7] 100 % of control | [14] 109 % of control | [15] 100 % of control | [16] 100 % of control

CC(C)(C)C(=O)/C=C/c1ccccc1
inactive: [7] 94 % of control | [8] 90 % of control | [9] 105 % of control

C=CC(C#N)(C=C)C=C
inactive: [7] 104 % of control

COc1ccc(C(=O)C[N+](=O)[O-])cc1
inactive: [8] 110 % of control | [9] 100 % of control | [13] 100 % of control

C1CC[N-]CC1.C1CC[N-]CC1.O=C(CC(=O)C(F)(F)F)C(F)(F)F.O=C(CC(=O)C(F)(F)F)C(F)(F)F.[Ni+2]
inactive: [3] 104 % of control | [4] 108 % of control | [5] 104 % of control

CCCCCCOC(CN(C)C)C(Cl)(Cl)Cl (stereo not given)
inactive: [7] 124 % of control | [8] 107 % of control | [9] 116 % of control

O=C(CCCC(O)(C1CC1)C1CC1)C1CC1
inactive: [10] 100 % of control | [11] 115 % of control

CC(=O)O[C@@H]1[C@H]2O[C@H]2[C@H]2O[C@@]2(COC(=O)c2ccccc2)[C@H]1OC(C)=O
inactive: dose: 100.0 mg/kg/injection, schedule: Q01DX010 (ip), vehicle: steriod suspending solution 90 % of control | dose: 200.0 mg/kg/injection, schedule: Q01DX010 (ip), vehicle: steriod suspending solution 90 % of control | dose: 400.0 mg/kg/injection, schedule: Q01DX010 (ip), vehicle: steriod suspending solution 86 % of control

CC1OC2CC(=O)OC2C2=C1C(=O)c1c(O)c3c(c(O)c1C2=O)C1CC(O)C3(O)C(C)O1 (stereo not given)
inactive: dose: 2.5 mg/kg/injection, schedule: Q01DX010 (ip), vehicle: saline 115 % of control | dose: 5.0 mg/kg/injection, schedule: Q01DX010 (ip), vehicle: saline 115 % of control | dose: 10.0 mg/kg/injection, schedule: Q01DX010 (ip), vehicle: saline 115 % of control

O=C(c1ccccc1)C(Br)C(Br)C(=O)c1ccccc1 (stereo not given)
inactive: [10] 115 % of control | [11] 100 % of control | [12] 95 % of control

O=c1[nH]c(C(F)(F)F)nc2c1nc1n2CCC1
inactive: [14] 104 % of control | [15] 100 % of control | [16] 100 % of control

CCCCCCCCCCCCCCC(F)C(=O)OCC1OC(CO)(OC2OC(CO)C(O)C(O)C2O)C(O)C1O (stereo not given)
inactive: [6] 116 % of control | [7] 108 % of control | dose: 50.0 mg/kg/injection, schedule: Q04DX003 (ip), vehicle: saline with Tween-80 108 % of control | [14] 91 % of control

COC(=O)CCC(C)C1CCC2C3CCC4CC(SC(=N)N)CCC4(C)C3CCC12C (stereo not given)
inactive: dose: 1.56 mg/kg/injection, schedule: Q01DX009 (ip), vehicle: suspension in saline 93 % of control | dose: 3.13 mg/kg/injection, schedule: Q01DX009 (ip), vehicle: suspension in saline 100 % of control | dose: 6.25 mg/kg/injection, schedule: Q01DX009 (ip), vehicle: suspension in saline 109 % of control | [7] 105 % of control | [8] 103 % of control

O=C1CC(SC(=S)C2CCCC2=O)C(=O)O1 (stereo not given)
inactive: [7] 122 % of control

CCOC(=O)C(Cc1ccc(N(CCCl)CCCl)cc1)NC(=O)C(C)NC(C)=O (stereo not given)
inactive: dose: 5.0 mg/kg/injection, schedule: Q04DX003 (ip), vehicle: water 99 % of control | dose: 10.0 mg/kg/injection, schedule: Q04DX003 (ip), vehicle: water 99 % of control | dose: 20.0 mg/kg/injection, schedule: Q04DX003 (ip), vehicle: water 112 % of control | dose: 40.0 mg/kg/injection, schedule: Q04DX003 (ip), vehicle: water 116 % of control

CC(=O)OCCC/C(=C/c1ccc(/C=C(\CCCOC(C)=O)[N+](=O)[O-])cc1)[N+](=O)[O-]
inactive: dose: 50.0 mg/kg/injection, schedule: Q04DX003 (ip), vehicle: Klucel (hydroxypropylcellulose) (HPC) 96 % of control | dose: 100.0 mg/kg/injection, schedule: Q04DX003 (ip), vehicle: Klucel (hydroxypropylcellulose) (HPC) 101 % of control | dose: 200.0 mg/kg/injection, schedule: Q04DX003 (ip), vehicle: Klucel (hydroxypropylcellulose) (HPC) 101 % of control

CCCCCCCCCOCC1CO1 (stereo not given)
inactive: [7] 111 % of control | [8] 110 % of control | [9] 101 % of control
